Target: T1, his-galectin-3 (Homo sapiens, UniProt P17931)
T1 construct: purchased Abcam
Assay: TR-FRET assay (in vitro galectin-3 binding inhibitory activity test)
Conditions: Table 1; compound at 20 μM; 60 nM his-galectin-3, 15 nM biotin-ASF; read-out: % Inhibitory activity (at 20 μM)
In short: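 Compound is premixed with his-galectin-3 (60 nM final), then biotin-ASF (15 nM), Tb anti-His antibody (2 nM) and streptavidin-d2 (20 nM) are added. After at least 3.5 hours at RT in HEPES/NaCl buffer with Tween 20 and BSA, TR-FRET is read at 615/665 nm. DMSO serves as the uninhibited control, ASF omission as background.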

T1 sequence (P17931 whole entry): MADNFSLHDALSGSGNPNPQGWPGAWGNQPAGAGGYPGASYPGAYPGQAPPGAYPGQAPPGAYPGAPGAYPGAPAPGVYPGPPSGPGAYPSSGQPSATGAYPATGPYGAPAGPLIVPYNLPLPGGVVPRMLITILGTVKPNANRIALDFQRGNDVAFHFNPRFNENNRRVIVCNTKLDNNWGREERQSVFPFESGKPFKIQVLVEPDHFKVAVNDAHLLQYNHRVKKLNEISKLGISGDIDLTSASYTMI

Row | inhibition at 20 µM | SMILES
1 | 50 to 75% | O=C(N[C@@H]1CCO[C@]12O[C@H](CO)[C@H](O)[C@H](n1cc(-c3cc(F)c(F)c(F)c3)nn1)[C@H]2O)c1cccc(Oc2ccccc2)c1 [Compound A130, N-((4R,5S,7R,8R,9S,10R)-8,10-dihydroxy-7-(hydroxymethyl)-9-(4-(3,4,5-trifluorophenyl)-1H-1,2,3-triazol-1-yl)-1,6-dioxaspiro[4.5]decan-4-yl)-3-phenoxybenzamide]
2 | < 25% | O=C(N[C@@H]1CCO[C@]12O[C@H](CO)[C@H](O)[C@H](n1cc(-c3cc(F)c(F)c(F)c3)nn1)[C@H]2O)c1ccc(-c2ccccc2)cc1 [Compound A131, N-((4R,5S,7R,8R,9S,10R)-8,10-dihydroxy-7-(hydroxymethyl)-9-(4-(3,4,5-trifluorophenyl)-1H-1,2,3-triazol-1-yl)-1,6-dioxaspiro[4.5]decan-4-yl)-[1.1′ biphenyl]-4-carboxamide]
3 | 25 to 50% | COc1cccc(CN[C@@H]2CCO[C@]23O[C@H](CO)[C@H](O)[C@H](n2cc(-c4cc(F)c(F)c(F)c4)nn2)[C@H]3O)c1O [Compound A132, (4R,5S,7R,8R,9S,10R)-4-((2,3-hydroxy-3-methoxybenzyl)amino)-7-(hydroxymethyl)-9-(4-(3,4,5-trifluorophenyl)-1H-1,2,3-triazol-1-yl)-1,6-dioxaspiro[4.5]decane-8,10-diol]
4 | > 75% | O=C(N[C@@H]1CCO[C@]12O[C@H](CO)[C@H](O)[C@H](n1cc(-c3cc(F)c(F)c(F)c3)nn1)[C@H]2O)c1cccc2ccccc12 [Compound A133, N-((4R,5S,7R,8R,9S,10R)-8,10-dihydroxy-7-(hydroxymethyl)-9-(4-(3,4,5-trifluorophenyl)-1H-1,2,3-triazol-1-yl)-1,6-dioxaspiro[4.5]decan-4-yl)-1-naphthamide]
5 | > 75% | O=C(N[C@@H]1CCO[C@]12O[C@H](CO)[C@H](O)[C@H](n1cc(-c3cc(F)c(F)c(F)c3)nn1)[C@H]2O)c1cccc(-c2ccccc2)c1 [Compound A134, N-((4R,5S,7R,8R,9S,10R)-8,10-dihydroxy-7-(hydroxymethyl)-9-(4-(3,4,5-trifluorophenyl)-1H-1,2,3-triazol-1-yl)-1,6-dioxaspiro[4.5]decan-4-yl)-[1.1′ biphenyl]-3-carboxamide]
6 | < 25% | O=C(Cc1ccc(-c2ccccc2)cc1)N[C@@H]1CCO[C@]12O[C@H](CO)[C@H](O)[C@H](n1cc(-c3cc(F)c(F)c(F)c3)nn1)[C@H]2O [Compound A135, 2-([1,1′-biphenyl]-4-yl)-N-((4R,5S,7R,8R,9S,10R)-8,10-dihydroxy-7-(hydroxymethyl)-9-(4-(3,4,5-trifluorophenyl)-1H-1,2,3-triazol-1-yl)-1,6-dioxaspiro[4.5]decan-4-yl)acetamide]
7 | > 75% | O=C(Cc1cccc(C(F)(F)F)c1)N[C@@H]1CCO[C@]12O[C@H](CO)[C@H](O)[C@H](n1cc(-c3cc(F)c(F)c(F)c3)nn1)[C@H]2O [Compound A136, N-((4R,5S,7R,8R,9S,10R)-8,10-dihydroxy-7-(hydroxymethyl)-9-(4-(3,4,5-trifluorophenyl)-1H-1,2,3-triazol-1-yl)-1,6-dioxaspiro[4.5]decan-4-yl)-2-(3-(trifluoromethyl)phenyl)acetamide]
8 | 50 to 75% | CC(C(=O)N[C@@H]1CCO[C@]12O[C@H](CO)[C@H](O)[C@H](n1cc(-c3cc(F)c(F)c(F)c3)nn1)[C@H]2O)c1ccccc1 (stereo partly drawn) [Compound A137, N-((4R,5S,7R,8R,9S,10R)-8,10-dihydroxy-7-(hydroxymethyl)-9-(4-(3,4,5-trifluorophenyl)-1H-1,2,3-triazol-1-yl)-1,6-dioxaspiro[4.5]decan-4-yl)-2-phenylpropanamide]
9 | < 25% | O=C(c1ccccc1)N1CCC[C@]2(C1)O[C@H](CO)[C@H](O)[C@H](n1cc(-c3cc(F)c(F)c(F)c3)nn1)[C@H]2O [Compound A138, ((2R,3R,4S,5R,6R)-3,5-dihydroxy-2-(hydroxymethyl)-4-(4-(3,4,5-trifluorophenyl)-1H-1,2,3-triazol-1-yl)-1-oxa-8-azaspiro[5.5]undecan-8-yl)(phenyl)methanone]
10 | < 25% | COc1cccc(CC(=O)N2CCC[C@]3(C2)O[C@H](CO)[C@H](O)[C@H](n2cc(-c4cc(F)c(F)c(F)c4)nn2)[C@H]3O)c1 [Compound A140, 1-((2R,3R,4S,5R,6R)-3,5-dihydroxy-2-(hydroxymethyl)-4-(4-(3,4,5-trifluorophenyl)-1H-1,2,3-triazol-1-yl)-1-oxa-8-azaspiro[5.5]undecan-8-yl)-2-(3-methoxyphenyl)ethanone]
11 | < 25% | OC[C@H]1O[C@@]2(CCCN(Cc3cccc(Cl)c3)C2)[C@H](O)[C@@H](n2cc(-c3cc(F)c(F)c(F)c3)nn2)[C@H]1O [Compound A143, (2R,3R,4S,5R,6R)-8-(3-chlorobenzyl)-2-(hydroxymethyl)-4-(4-(3,4,5-trifluorophenyl)-1H-1,2,3-triazol-1-yl)-1-oxa-8-azaspiro[5.5]undecane-3,5-diol]
12 | < 25% | O=C(c1cccnc1)N1CCC[C@]2(C1)O[C@H](CO)[C@H](O)[C@H](n1cc(-c3cc(F)c(F)c(F)c3)nn1)[C@H]2O [Compound A144, ((2R,3R,4S,5R,6R)-3,5-dihydroxy-2-(hydroxymethyl)-4-(4-(3,4,5-trifluorophenyl)-1H-1,2,3-triazol-1-yl)-1-oxa-8-azaspiro[5.5]undecan-8-yl)(pyridin-3-yl)methanone]

Continued, compound first:

Row | SMILES | inhibition at 20 µM
13 | O=C(N[C@@H]1CCO[C@]12O[C@H](CO)[C@H](O)[C@H](n1cc(-c3cc(F)c(F)c(F)c3)nn1)[C@H]2O)c1cc2ccccc2s1 [Compound A124, N-((4R,5S,7R,8R,9S,10R)-8,10-dihydroxy-7-(hydroxymethyl)-9-(4-(3,4,5-trifluorophenyl)-1H-1,2,3-triazol-1-yl)-1,6-dioxaspiro[4.5]decan-4-yl)benzo[b]thiophene-2-carboxamide] | 50 to 75%
14 | OC[C@H]1O[C@]2(OCC[C@H]2NCc2ccccc2O)[C@H](O)[C@@H](n2cc(-c3cc(F)c(F)c(F)c3)nn2)[C@H]1O [Compound A125, (4R,5S,7R,8R,9S,10R)-4-((2-hydroxybenzyl)amino)-7-(hydroxymethyl)-9-(4-(3,4,5-trifluorophenyl)-1H-1,2,3-triazol-1-yl)-1,6-dioxaspiro[4.5]decane-8,10-diol] | < 25%
15 | OC[C@H]1O[C@]2(OCC[C@H]2NCc2cc(Cl)ccc2O)[C@H](O)[C@@H](n2cc(-c3cc(F)c(F)c(F)c3)nn2)[C@H]1O [Compound A126, (4R,5S,7R,8R,9S,10R)-4-((5-chloro-2-hydroxybenzyl)amino)-7-(hydroxymethyl)-9-(4-(3,4,5-trifluorophenyl)-1H-1,2,3-triazol-1-yl)-1,6-dioxaspiro[4.5]decane-8,10-diol] | 25 to 50%
16 | OC[C@H]1O[C@]2(OCC[C@H]2NCc2cccc(Cl)c2O)[C@H](O)[C@@H](n2cc(-c3cc(F)c(F)c(F)c3)nn2)[C@H]1O [Compound A127, (4R,5S,7R,8R,9S,10R)-4-((3-chloro-2-hydroxybenzyl)amino)-7-(hydroxymethyl)-9-(4-(3,4,5-trifluorophenyl)-1H-1,2,3-triazol-1-yl)-1,6-dioxaspiro[4.5]decane-8,10-diol] | 50 to 75%
17 | OC[C@H]1O[C@]2(OCC[C@H]2NCc2ccc(Cl)o2)[C@H](O)[C@@H](n2cc(-c3cc(F)c(F)c(F)c3)nn2)[C@H]1O [Compound A128, (4R,5S,7R,8R,9S,10R)-4-(((5-chlorofuran-2-yl)methyl)amino)-7-(hydroxymethyl)-9-(4-(3,4,5-trifluorophenyl)-1H-1,2,3-triazol-1-yl)-1,6-dioxaspiro[4.5]decane-8,10-diol] | 50 to 75%
18 | O=C(N[C@@H]1CCO[C@]12O[C@H](CO)[C@H](O)[C@H](n1cc(-c3cc(F)c(F)c(F)c3)nn1)[C@H]2O)c1ccc2ccccc2c1 [Compound A129, N-((4R,5S,7R,8R,9S,10R)-8,10-dihydroxy-7-(hydroxymethyl)-9-(4-(3,4,5-trifluorophenyl)-1H-1,2,3-triazol-1-yl)-1,6-dioxaspiro[4.5]decan-4-yl)-2-naphthamide] | 50 to 75%

Same assay, conditions: Table 3, found values; compound at 20 μM; 60 nM his-galectin-3, 15 nM biotin-ASF; read-out: % Inhibitory activity (at 20 μM)

Row | inhibition at 20 µM | SMILES
19 | 56.6% | O=C(N[C@@H]1CCO[C@]12O[C@H](CO)[C@H](O)[C@H](n1cc(-c3cc(F)c(F)c(F)c3)nn1)[C@H]2O)c1cccc(Oc2ccccc2)c1 [Compound A130, N-((4R,5S,7R,8R,9S,10R)-8,10-dihydroxy-7-(hydroxymethyl)-9-(4-(3,4,5-trifluorophenyl)-1H-1,2,3-triazol-1-yl)-1,6-dioxaspiro[4.5]decan-4-yl)-3-phenoxybenzamide]

Same assay, conditions: read-out: % Inhibitory activity (at 20 μM), Table 1; compound at 20 μM; 60 nM his-galectin-3, 15 nM biotin-ASF

Row | SMILES | inhibition at 20 µM
20 | O=C(Cc1cccc(Cl)c1)N1CCC[C@]2(C1)O[C@H](CO)[C@H](O)[C@H](n1cc(-c3cc(F)c(F)c(F)c3)nn1)[C@H]2O [Compound A139, 2-(3-chlorophenyl)-1-((2R,3R,4S,5R,6R)-3,5-dihydroxy-2-(hydroxymethyl)-4-(4-(3,4,5-trifluorophenyl)-1H-1,2,3-triazol-1-yl)-1-oxa-8-azaspiro[5.5]undecan-8-yl)ethanone] | < 25%
21 | OC[C@H]1O[C@@]2(CCCN(Cc3ccccc3)C2)[C@H](O)[C@@H](n2cc(-c3cc(F)c(F)c(F)c3)nn2)[C@H]1O [Compound A141, (2R,3R,4S,5R,6R)-8-benzyl-2-(hydroxymethyl)-4-(4-(3,4,5-trifluorophenyl)-1H-1,2,3-triazol-1-yl)-1-oxa-8-azaspiro[5.5]undecane-3,5-diol] | < 25%
22 | OC[C@H]1O[C@@]2(CCCN(Cc3cccnc3)C2)[C@H](O)[C@@H](n2cc(-c3cc(F)c(F)c(F)c3)nn2)[C@H]1O [Compound A142, (2R,3R,4S,5R,6R)-2-(hydroxymethyl)-8-(pyridin-3-ylmethyl)-4-(4-(3,4,5-trifluorophenyl)-1H-1,2,3-triazol-1-yl)-1-oxa-8-azaspiro[5.5]undecane-3,5-diol] | < 25%
23 | O=C(c1cccc(Cl)c1)N1CCC[C@]2(C1)O[C@H](CO)[C@H](O)[C@H](n1cc(-c3cc(F)c(F)c(F)c3)nn1)[C@H]2O [Compound A145, (3-chlorophenyl)((2R,3R,4S,5R,6R)-3,5-dihydroxy-2-(hydroxymethyl)-4-(4-(3,4,5-trifluorophenyl)-1H-1,2,3-triazol-1-yl)-1-oxa-8-azaspiro[5.5]undecan-8-yl)methanone] | < 25%

— US20250026778A1 (TIUMBIO CO., LTD., priority 2021, published 2025)
